Source: article PMC8713996, “An anti-tuberculosis compound screen using a zebrafish infection model identifies an aspartyl-tRNA synthetase inhibitor” (Disease Models & Mechanisms, 2021)

How the values were obtained:
[1] = system: Mtb-R-TBA161-C (aspS F526L); format: cell-based, Mycobacterium tuberculosis
[2] = system: Mtb carrying pMS2-aspSMmar or pMS2-aspSMmarR168G; format: cell-based, Mycobacterium tuberculosis

With `O=c1c2cc(Cl)cc(Cl)c2oc2nc3n(c(=O)c12)CCCS3` [TBA161-C, 9,11-dichloro-3,4-dihydro-chromeno[2′,3′:4,5]pyrimido[2,1-b][1,3]thiazine-6,7-dione] the “MIC90, TBA161-C-resistant Mtb strains” value [1] was “exceeding 20 µM”, the “MIC90 of resistant Mtb strains compared to the parental strain” value [1] was “more than tenfold higher” and the “Increase of MIC90, Mtb overexpressing wild-type aspS vs wild-type strain” value [2] was “fivefold”. The “MIC90, Mtb overexpressing mutated aspS (aspSMmarR168G)” value [2] was > 80 µM.
